Reference: patent US6737383B1, “Herbicidal oxadiazolidines” (priority 1999, dated 2004)

Experiments:
Conditions in all cases: Preemergence
[1] = tested on: soybean; experiment: Test B pre/postemergence soybean; format: in vivo, Glycine max
How it was run: (§1)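 Test chemicals in a non-phytotoxic solvent mixture with surfactant were sprayed preemergence onto planted seeds and postemergence onto plants 2 to 18 cm tall (1- to 4-leaf stage). After twelve to sixteen days in a greenhouse, injury was visually rated against untreated controls from 0 (no effect) to 10 (complete control).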

[2] = tested on: corn; experiment: Test B pre/postemergence corn; format: in vivo, Zea mays
How it was run: as §1

[3] = tested on: bedstraw; experiment: Test B pre/postemergence bedstraw; format: in vivo, Galium aparine
How it was run: as §1

[4] = tested on: wheat; experiment: Test B pre/postemergence wheat; format: in vivo, Triticum aestivum
How it was run: as §1

[5] = tested on: giant foxtail; experiment: Test B pre/postemergence giant foxtail; format: in vivo, Setaria faberii
How it was run: as §1

[6] = tested on: morningglory; experiment: Test B pre/postemergence morningglory; format: in vivo, Ipomoea hederacea
How it was run: as §1

[7] = tested on: purple nutsedge; experiment: Test B pre/postemergence purple nutsedge; format: in vivo, Cyperus rotundus
How it was run: as §1

[8] = tested on: pigweed; experiment: Test B pre/postemergence pigweed; format: in vivo, Amaranthus retroflexus
How it was run: as §1

[9] = tested on: velvetleaf; experiment: Test B pre/postemergence velvetleaf; format: in vivo, Abutilon theophrasti
How it was run: as §1

[10] = tested on: wild oat; experiment: Test B pre/postemergence wild oat; format: in vivo, Avena fatua
How it was run: as §1

[11] = tested on: rape; experiment: Test B pre/postemergence rape; format: in vivo, Brassica napus
How it was run: as §1

[12] = tested on: crabgrass; experiment: Test B pre/postemergence crabgrass; format: in vivo, Digitaria sanguinalis
How it was run: as §1

[13] = tested on: blackgrass; experiment: Test B pre/postemergence blackgrass; format: in vivo, Alopecurus myosuroides
How it was run: as §1

[14] = tested on: cocklebur; experiment: Test B pre/postemergence cocklebur; format: in vivo, Xanthium strumarium
How it was run: as §1

[15] = tested on: surinam grass; experiment: Test B pre/postemergence surinam grass; format: in vivo, Brachiaria decumbens
How it was run: as §1

[16] = tested on: sugar beet; experiment: Test B pre/postemergence sugar beet; format: in vivo, Beta vulgaris
How it was run: as §1

[17] = Rate 62 g/ha, scale of 0 to 10 where 0 is no effect and 10 is complete control
[18] = Rate 125 g/ha, scale of 0 to 10 where 0 is no effect and 10 is complete control
[19] = Rate 250 g/ha, scale 0 (no effect) to 10 (complete control)
[20] = Rate 500 g/ha, scale 0 to 10 (0 no effect, 10 complete control)

COCC(OC)n1c(=O)on(C(=O)N(c2ccc(Cl)cc2)C(C)C)c1=O (stereo not shown) [Compound 726]
9: Giant foxtail plant response rating [5, 17] | Plant response rating, Giant foxtail [5, 18] | Wild oats plant response rating [10, 20] | Crabgrass plant response rating [12, 17] | Plant response rating, Crabgrass [12, 18] | Crabgrass plant response rating [12, 19] | Blackgrass plant response rating [13, 20] | B. signalgrass plant response rating [15, 20]
7: Redroot pigweed plant response rating [8, 19] | Plant response rating, Wild oats [10, 18] | Rape plant response rating [11, 20] | Blackgrass plant response rating [13, 17] | Plant response rating, B. signalgrass [15, 18] | B. signalgrass plant response rating [15, 19]
0: Soybean plant response rating [1, 17] | Plant response rating, Soybean [1, 18] | Soybean plant response rating [1, 19] | Soybean plant response rating [1, 20] | Corn plant response rating [2, 17] | Plant response rating, Corn [2, 18] | Corn plant response rating [2, 19] | Bedstraw plant response rating [3, 17] | Plant response rating, Bedstraw [3, 18] | Bedstraw plant response rating [3, 19] | Bedstraw plant response rating [3, 20] | Wheat plant response rating [4, 17] | Plant response rating, Wheat [4, 18] | Wheat plant response rating [4, 19] | Wheat plant response rating [4, 20] | Morningglory plant response rating [6, 17] | Plant response rating, Morningglory [6, 18] | Nutsedge plant response rating [7, 17] | Plant response rating, Nutsedge [7, 18] | Nutsedge plant response rating [7, 19] | Nutsedge plant response rating [7, 20] | Redroot pigweed plant response rating [8, 17] | Velvetleaf plant response rating [9, 17] | Plant response rating, Velvetleaf [9, 18] | Velvetleaf plant response rating [9, 19] | Velvetleaf plant response rating [9, 20] | Rape plant response rating [11, 17] | Plant response rating, Rape [11, 18] | Rape plant response rating [11, 19] | Cocklebur plant response rating [14, 17] | Plant response rating, Cocklebur [14, 18] | Cocklebur plant response rating [14, 19] | Cocklebur plant response rating [14, 20] | Sugarbeets plant response rating [16, 17] | Plant response rating, Sugarbeets [16, 18]
2: Corn plant response rating [2, 20]
8: Redroot pigweed plant response rating [8, 20] | Wild oats plant response rating [10, 19] | Plant response rating, Blackgrass [13, 18] | Blackgrass plant response rating [13, 19]
5: Sugarbeets plant response rating [16, 19] | Sugarbeets plant response rating [16, 20]
10: Giant foxtail plant response rating [5, 19] | Giant foxtail plant response rating [5, 20] | Crabgrass plant response rating [12, 20]
1: Morningglory plant response rating [6, 19] | Morningglory plant response rating [6, 20] | Wild oats plant response rating [10, 17]
4: Plant response rating, Redroot pigweed [8, 18] | B. signalgrass plant response rating [15, 17]
